From US20030129629A1, “Methods and compositions for the identification, assessment, prevention, and therapy of human cancers” (Millennium Pharmaceuticals, Inc., priority 2000, published 2003)

Tested on: 60 cancer cell lines (NCI 60 cancer cell line series)
Assay: NCI-DTP in vitro cancer screen, sulforhodamine B (SRB) growth inhibition, 48 hour exposure
Assay type: cell-based, human
Description: Cancer Cell Line Preparation. Sixty cancer cell lines were obtained from the National Cancer Institute Developmental Therapeutics Program (NCI-DTP). Procedures for growing cells and testing compounds have been described previously (Scudiero et al., Cancer Res. 1988, 48:4827-4833; Stinson et al., Anticancer Res.; Myers et al., Electrophoresis 1997, 18:647-653). Cells are plated on day 0 at a density individualized for each cell line so that they will generally be sub-confluent at the end of the assay period. On day 1, a compound is added in the format for a duplicate-well, 5-dose, ten-fold interval dose response study.
No-drug, no-cell and no-growth controls are included. On day 3 the cells are processed for staining with sulforhodamine B (SRB), which reflects the amount of cell mass present at the end of a 48 hour exposure to the test agent. From dose response curves based on the SRB data, various parameters can be determined. […] More precisely, the quantity used in the calculation to be described is the potency measure −log{GI50}.
Activity database (A). […] This subset of compounds was selected from the larger 23,000 compound database available from the DTP. The compounds were selected on the basis of their known mechanism of action and chemical structure. The average potency −log{GI50} was extracted from the comma-delimited text files available through the Web at http://www.nci.nih.gov/intra/lmp/jnwbio.html. Subsequently, these −log{GI50} values were inspected manually and classified as indicating either Low, Medium or High sensitivity to each compound.

O=C1c2c(O)ccc(O)c2C(=O)c2c(NCCNCCO)ccc(NCCNCCO)c21 [Mitoxantrone]
classification of cell line as Low(1), Medium(2), High(3) sensitivity to compound (Breast BT-549 CL5013): 2 | classification of cell line as Low(1), Medium(2), High(3) sensitivity to compound (Breast HS-578T CL5006): 2 | classification of cell line as Low(1), Medium(2), High(3) sensitivity to compound (Breast MCF7(I) CL5001): 3 | classification of cell line as Low(1), Medium(2), High(3) sensitivity to compound (Breast MCF7/ADRr CL5002): 1 | classification of cell line as Low(1), Medium(2), High(3) sensitivity to compound (Breast MDA-MB-231 CL5005): 1 | classification of cell line as Low(1), Medium(2), High(3) sensitivity to compound (Breast MDA-MB-435 CL5011): 1 | classification of cell line as Low(1), Medium(2), High(3) sensitivity to compound (Breast MDA-N CL5012): 1 | classification of cell line as Low(1), Medium(2), High(3) sensitivity to compound (Breast T-47D CL5014): 2 | classification of cell line as Low(1), Medium(2), High(3) sensitivity to compound (CNS SF-268 CL12014): 2 | classification of cell line as Low(1), Medium(2), High(3) sensitivity to compound (CNS SF-295 CL12015): 2 | classification of cell line as Low(1), Medium(2), High(3) sensitivity to compound (CNS SF-539 CL12016): 3 | classification of cell line as Low(1), Medium(2), High(3) sensitivity to compound (CNS SNB-19 CL12002): 3 | classification of cell line as Low(1), Medium(2), High(3) sensitivity to compound (CNS SNB-75(I) CL12005): 3 | classification of cell line as Low(1), Medium(2), High(3) sensitivity to compound (CNS U251(I) CL12009): 3 | classification of cell line as Low(1), Medium(2), High(3) sensitivity to compound (Colon COLO-250 CL4010): 2 | classification of cell line as Low(1), Medium(2), High(3) sensitivity to compound (Colon HCC-2998 CL4002): 1 | classification of cell line as Low(1), Medium(2), High(3) sensitivity to compound (Colon HCT-15 CL4015): 1 | classification of cell line as Low(1), Medium(2), High(3) sensitivity to compound (Colon HCT-116 CL4003): 2 | classification of cell line as Low(1), Medium(2), High(3) sensitivity to compound (Colon HT29(I) CL4001): 1 | classification of cell line as Low(1), Medium(2), High(3) sensitivity to compound (Colon KM12 CL4017): 1 | classification of cell line as Low(1), Medium(2), High(3) sensitivity to compound (Colon SW-620 CL4009): 2 | classification of cell line as Low(1), Medium(2), High(3) sensitivity to compound (Leukemia CCRF-CEM(I) CL7003): 3 | classification of cell line as Low(1), Medium(2), High(3) sensitivity to compound (Leukemia HL-60(I) CL7008): 3 | classification of cell line as Low(1), Medium(2), High(3) sensitivity to compound (Leukemia K562(I) CL7005): 2 | classification of cell line as Low(1), Medium(2), High(3) sensitivity to compound (Leukemia MOLT-4 CL7006): 3 | classification of cell line as Low(1), Medium(2), High(3) sensitivity to compound (Leukemia RPMI-8226(I) CL7010): 2 | classification of cell line as Low(1), Medium(2), High(3) sensitivity to compound (Leukemia SR CL7019): 3 | classification of cell line as Low(1), Medium(2), High(3) sensitivity to compound (Melanoma LOX IMVI CL10001): 2 | classification of cell line as Low(1), Medium(2), High(3) sensitivity to compound (Melanoma M14 CL10014): 2 | classification of cell line as Low(1), Medium(2), High(3) sensitivity to compound (Melanoma MALME-3M CL10002): 2 | classification of cell line as Low(1), Medium(2), High(3) sensitivity to compound (Melanoma SK-MEL-2 CL10005): 1 | classification of cell line as Low(1), Medium(2), High(3) sensitivity to compound (Melanoma SK-MEL-5 CL10007): 2 | classification of cell line as Low(1), Medium(2), High(3) sensitivity to compound (Melanoma SK-MEL-28 CL10008): 1 | classification of cell line as Low(1), Medium(2), High(3) sensitivity to compound (Melanoma UACC-62 CL10020): 2 | classification of cell line as Low(1), Medium(2), High(3) sensitivity to compound (Melanoma UACC-257 CL10021): 1 | classification of cell line as Low(1), Medium(2), High(3) sensitivity to compound (NSCLC A549/ATCC CL1004): 3 | classification of cell line as Low(1), Medium(2), High(3) sensitivity to compound (NSCLC EKVX CL1008): 1 | classification of cell line as Low(1), Medium(2), High(3) sensitivity to compound (NSCLC HOP-62 CL1026): 3 | classification of cell line as Low(1), Medium(2), High(3) sensitivity to compound (NSCLC HOP-92 CL1029): 3 | sensitivity classification Low(1)/Medium(2)/High(3) (NSCLC NCI-H23(I) CL1001): 2 | classification of cell line as Low(1), Medium(2), High(3) sensitivity to compound (NSCLC NCI-H226 CL1013): 3 | sensitivity classification Low(1)/Medium(2)/High(3) (NSCLC NCI-H332M CL1017): 1 | sensitivity classification Low(1)/Medium(2)/High(3) (NSCLC NCI-H460 CL1021): 3 | sensitivity classification Low(1)/Medium(2)/High(3) (NSCLC NCI-H522 CL1003): 2 | sensitivity classification Low(1)/Medium(2)/High(3) (Ovarian IGROV1 CL6010): 2 | sensitivity classification Low(1)/Medium(2)/High(3) (Ovarian OVCAR-3 CL6001): 1 | sensitivity classification Low(1)/Medium(2)/High(3) (Ovarian OVCAR-4 CL6002): 1 | sensitivity classification Low(1)/Medium(2)/High(3) (Ovarian OVCAR-5 CL6003): 1 | sensitivity classification Low(1)/Medium(2)/High(3) (Ovarian OVCAR-8 CL6005): 2 | sensitivity classification Low(1)/Medium(2)/High(3) (Ovarian SK-OV-3 CL6011): 2 | sensitivity classification Low(1)/Medium(2)/High(3) (Prostate DU-145 CL11003): 2 | sensitivity classification Low(1)/Medium(2)/High(3) (Prostate PC-3(I) CL11001): 2 | sensitivity classification Low(1)/Medium(2)/High(3) (Renal 786-0 CL9018): 2 | sensitivity classification Low(1)/Medium(2)/High(3) (Renal A498 CL9013): 2 | sensitivity classification Low(1)/Medium(2)/High(3) (Renal ACHN CL9023): 3 | sensitivity classification Low(1)/Medium(2)/High(3) (Renal CAKI-1 CL9015): 3 | sensitivity classification Low(1)/Medium(2)/High(3) (Renal RXF-393 CL9016): 2 | sensitivity classification Low(1)/Medium(2)/High(3) (Renal SN12C CL9008): 3 | sensitivity classification Low(1)/Medium(2)/High(3) (Renal TK10 CL9024): 1 | sensitivity classification Low(1)/Medium(2)/High(3) (Renal UO-31 CL9004): 1
